# Patent US20100197688A1, “EPHA4 RTK INHIBITORS FOR TREATMENT OF NEUROLOGICAL AND NEURODEGENERATIVE DISORDERS AND CANCER” (priority 2008, published 2010)
# Experiments:
# P38alpha kinase = target: T1, P38alpha kinase (Homo sapiens, UniProt Q16539); assay: P38 alpha kinase counterscreen assay (Caliper); type: biochemical
# T1 construct: purchased Dundee Library
# Method: A counterscreen assay was performed to measure p38alpha kinase activity using the Caliper System (LifeSciences, USA). This system is based on the microfluidic technology. P38 alpha kinase activity was measured by the shift in mobility of the non-phosphorylated form when separated by electrophoresis and detected via LED (Light Emitting Diode) induced fluorescence. This assay was automated following the manufacturer's protocol. P38alpha kinase and its substrate GST-MK2 were bought from Dundee Library.
# Compounds were titrated, concentration-response curves were represented and the concentrations for 50% inhibition (IC50) were calculated.
# [1] = system: Primary Rat cortical astrocytes; assay: Scratch wound assay, astrocytes; type: cell-based
# Method: Primary Rat cortical astrocytes were purchased from Lonza (Walkersvelle Inc., MA, USA). Cells were plated in culture flasks at a density of 1.106-3.106 cells/ml, and maintained at 37° C. and […], in Astrocyte Growth Medium Bulletkit™ (Lonza Walkersville Inc., MA, USA). When astrocyte cultures reached confluence, cells were trypsinized and replated at 6.105 cells/ml onto 24 well ImageLock™ plate (Essen Instruments, Mich., USA).
# Scratch wound assays are commonly used to assess the effects of drugs and drug candidates on the cellular proliferation and/or migration associated with wound closing. The IncuCyte™ system (Essen Instruments, Mich., USA), an automated imaging platform, provides ongoing, real-time images and quantitative data generated throughout the wound-closing process. […] Wound closure can be automatically monitored using the wound confluence (% confluence). […]
# The calculation of the area under the curve (AUC) of the % confluence function of the time gave a quantitative measurement of compounds efficacy on the scratch wound closing. […] The percentage of inhibition was calculated from the AUCs at each dose in comparison with the AUCs of the control wells (1% DMSO). Concentration-response curves were represented and the concentrations at the inflexion point (IP) were calculated. […]
# [2] = system: Primary Rat cortical astrocytes; assay: Proliferation assay (cell confluence), astrocytes; type: cell-based; details: at 5 μM
# Method: C2C12 were plated at 15,000 cells per well and then differentiated into myotubes with DMEM supplemented with 2% horse serum for 3 days in 24 well ImageLock™ plate (Essen Instruments, Mich., USA). Primary Rat cortical astrocytes were plated at 3.105 cells/ml onto 24 well ImageLock™ plate.
# Cells were placed into the IncuCyte™ at 37° C. and 95% CO2/5% O2, for two to three days. During this time, the cells within each well were repeatedly imaged at fixed time intervals (every three hours). The IncuCyte™ system automatically monitored the proliferation using the percentage of confluence. Percent of confluence can be graphed over time to evaluate the characteristics of proliferation in the presence of pharmacological agents.
# […] The percentage of reduction of cell confluence was calculated from the AUCs in comparison with the AUCs of the control wells (1% DMSO).
# [3] = system: Primary Rat cortical astrocytes; assay: Toxicity (percent of cell death), astrocytes; type: cell-based; details: 20 μM
# Method: EphA4 kinase inhibition is assessed by both an enzymatic assay measuring the phosphorylation of a purified recombinant EphA4 kinase and a cell-based assay using the activation of pGas-Luciferase system in EphA4-transfected CHO-K1 cells. The functional effects of EphA4 RTK inhibitors on cell motility and proliferation is evaluated by the scratch wound assay. The effect of EphA4 RTK inhibitors is also directly measured on the cell confluence. The counterscreen assays (cell counterscreen, Src, Jak2 and P38α kinase) identified other potential inhibitory activities of compounds unrelated to EphA4 kinase. The toxicity is measured by the percent of cell death in the different cell assays. Values represent IC50 and IP in μM calculated from the dose-response curves. Values in parentheses give the maximum percent inhibition.
# T1 sequence (Q16539 whole entry): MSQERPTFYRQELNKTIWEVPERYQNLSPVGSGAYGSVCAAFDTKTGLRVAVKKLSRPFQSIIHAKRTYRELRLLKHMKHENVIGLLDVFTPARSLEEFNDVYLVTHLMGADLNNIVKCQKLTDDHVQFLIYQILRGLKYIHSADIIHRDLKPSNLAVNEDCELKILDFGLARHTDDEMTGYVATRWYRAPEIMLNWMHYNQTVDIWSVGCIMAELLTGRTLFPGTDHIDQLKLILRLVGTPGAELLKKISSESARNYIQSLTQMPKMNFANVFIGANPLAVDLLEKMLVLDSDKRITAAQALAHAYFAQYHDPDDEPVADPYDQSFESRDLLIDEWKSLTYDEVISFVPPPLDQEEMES
smiles,measurement,setting,value
Cc1ccc(NC(=O)c2cccc(C(F)(F)F)c2)cc1-c1ccc(O)c(NC=O)c1 [Example 133],IC50,P38alpha kinase,6.9 µM
same,IC50,"[1]; Rattus norvegicus, Astrocyte, inflexion point, from AUC of % wound confluence, read-out: Scratch Assay Astrocytes IP",5 µM
same,Scratch Assay Astrocytes max inhibition in %,[1]; value in parentheses,50%
same,% Reduction of Confluence Astrocytes,[2],28.2% at 5 μM
same,Max Toxicity Astrocytes % of cell death,[3],0% 20 μM
